Source: patent US20020137154A1, “Methods for improving cell growth and alcohol production during fermentation” (priority 2000, published 2002)

Test system: recombinant Escherichia coli KO11
Assay: Batch fermentation of E. coli KO11 in Luria broth and xylose with nutrient additives: ethanol production and cell growth
Format: cell-based
Settings: LB+xylose
Procedure: Two types of media were tested: 1% CSL and Luria broth (LB). Each contained 97 g of either xylose or glucose per liter. Luria Broth consists of, per liter: 10 g Difco® Tryptone, 5 g Difco® Yeast Extract and 5 g NaCl. The 1% CSL medium consists of Corn Steep Liquor (1% w/v) plus mineral salts (mineral salts per liter: 1 g of KH2PO4. 0.5 g of K2HPO4, 3.1 g of (NH4)2SO4, 0.4 g of MgCl2·6H2), and 20 mg FeCl3·6H2O).
Luria Broth was prepared by autoclaving a 2× nutrient stock containing, per liter: 20 g Difco® Tryptone, 10 g Difo® Yeast Extract, and 10 g NaCl. Sugars (xylose or glucose) were autoclaved separately. A 1% CSL medium was prepared as follows: Commercial Corn Steep Liquor (CSL; 50% dry weight/50% water) was diluted with tap water to make a 20X stock containing 100 g dry weight of Corn Steep Liquor/L and was adjusted to pH 7.2 with NaOH (50%). After sterilization by autoclaving, the 20X CSL stock was clarified by centrifugation at 5000×g for 10 minutes. Magnesium was added as a 100× stock solution (40 g/L MgCl2·6H2O). Iron was added as a 1000× stock solution made by dissolving 20 g FeCl3·6H2O in 175 mL of HCl and adjusting to 1 L with sterile water. Nitrogen, sulfur and phosphorus were added using a 20× stock solution containing the following (per liter): 20 g of KH2PO4, 10 g of K2HPO4 and 62 g of (NH4)2SO4. Stock solutions containing minerals were sterilized separately by autoclaving. Final media was prepared by adding 750 mL of water to 1 L bottle containing 100 g of xylose or glucose.
Inocula were grown in same media used for fermentation and were prepared as follows. Three colonies from a fresh plate were used to inoculate seed cultures: 250-mL flask containing 100 mL medium. These cultures were grown with agitation (120 rpm) for 12-16 hours at 35° C. to a final OD550nm of approximately 2.0-2.5. Cells were harvested by centrifugation at 5000×g for 5 minutes, and resuspended in fresh media to an OD550nm of 0.1. The resulting suspension was distributed into 500-mL beakers containing 345 ml each of fermentation medium. Acetaldehyde was added as indicated. Batch fermentations (35° C., 100 rpm) were maintained at pH 6.5 by the automatic addition of 2N KOH. Cell mass, ethanol, and base addition (2N KOH) were recorded during 96 hours of incubation.
Equivalent amounts of distilled water were added instead of the acetaldehyde in control experiments.
Additives (e.g., as listed in Table 1) were dissolved in 5 mL di-H2O. Solutions with pH lower than 5 were neutralized to pH 6.5 with 2N KOH. Nutritional supplements were then filter-sterilized (0.45 μm filter disk) directly into the fermentation vessel containing the culture. The final concentration of all additives in the culture medium was 2 g/L unless otherwise indicated.
Cell mass was estimated by measuring OD550nm using Baush & Lomb® Spectronic 70 spectrophotometer. […] Ethanol was measured by gas chromatography using a Varian® 3400 CX gas chromatograph with 1-propanol as an internal standard.
Tables 1, 3, and 5 show time to completion of fermentation, ethanol production, and volumetric productivity of the fermentation for all concentrations of the compound and the control. Maximum ethanol production is shown in grams/liter (g/L). The ethanol yield is shown in grams of ethanol/grams of added sugar. Maximum volumetric productivity is shown in grams ethanol/(liter)(hour). The average productivity is calculated form the start of fermentation to the completion of fermentation is grams ethanol/(liter)hour).
Tables 2, 4, and 6 show the initial growth of the cells (OD taken after the first 24 hours of fermentation) and the maximum cell density (the time which culture reaches the maximum OD value).
Acetaldehyde was added to the fermentation medium at five different concentrations and time points. […] Where two additions are indicated, the first volume was added at the start of fermentation and the second was added after 8 hours of fermentation.

CC=O [Acetaldehyde, acetaldehyde]
Ethanol Production Maximum (0.25 g/L at start): 43.80 g/L | Ethanol Production Maximum % Control (0.25 g/L at start): 101.68% | Ethanol yield (0.25 g/L at start): 0.451 grams of ethanol/grams of added sugar | Initial Growth (OD at 24 h) % Control (0.25 g/L at start): 110.79% | Initial Growth (OD at 24 h) OD (0.25 g/L at start): 11.07 OD | Maximum Cell Density % Control (0.25 g/L at start): 100.20% | Maximum Cell Density OD (0.25 g/L at start): 11.07 OD | Maximum Cell Density Time (0.25 g/L at start): 24 h | Time to completion (0.25 g/L at start): 48 h | Volumetric Productivity Average (0.25 g/L at start): 0.913 grams ethanol/(liter)(hour) | Volumetric Productivity Average % Control (0.25 g/L at start): 101.68% | Volumetric Productivity Maximum (0.25 g/L at start): 1.352 grams ethanol/(liter)(hour) | Volumetric Productivity Maximum % Control (0.25 g/L at start): 117.36% | Ethanol Production Maximum (0.5 + 0.25 g/L (start, 8 h)): 41.40 g/L | Ethanol Production Maximum % Control (0.5 + 0.25 g/L (start, 8 h)): 96.11% | Ethanol yield (0.5 + 0.25 g/L (start, 8 h)): 0.426 grams of ethanol/grams of added sugar | Initial Growth (OD at 24 h) % Control (0.5 + 0.25 g/L (start, 8 h)): 99.02% | Initial Growth (OD at 24 h) OD (0.5 + 0.25 g/L (start, 8 h)): 9.89 OD | Maximum Cell Density % Control (0.5 + 0.25 g/L (start, 8 h)): 97.92% | Maximum Cell Density OD (0.5 + 0.25 g/L (start, 8 h)): 10.81 OD | Maximum Cell Density Time (0.5 + 0.25 g/L (start, 8 h)): 48 h | Time to completion (0.5 + 0.25 g/L (start, 8 h)): 48 h | Volumetric Productivity Average (0.5 + 0.25 g/L (start, 8 h)): 0.863 grams ethanol/(liter)(hour) | Volumetric Productivity Average % Control (0.5 + 0.25 g/L (start, 8 h)): 96.11% | Volumetric Productivity Maximum (0.5 + 0.25 g/L (start, 8 h)): 0.904 grams ethanol/(liter)(hour) | Volumetric Productivity Maximum % Control (0.5 + 0.25 g/L (start, 8 h)): 78.52% | Ethanol Production Maximum (0.5 + 0.5 g/L (start, 8 h)): 41.64 g/L | Ethanol Production Maximum % Control (0.5 + 0.5 g/L (start, 8 h)): 96.65% | Ethanol yield (0.5 + 0.5 g/L (start, 8 h)): 0.429 grams of ethanol/grams of added sugar | Initial Growth (OD at 24 h) % Control (0.5 + 0.5 g/L (start, 8 h)): 106.98% | Initial Growth (OD at 24 h) OD (0.5 + 0.5 g/L (start, 8 h)): 10.68 OD | Maximum Cell Density % Control (0.5 + 0.5 g/L (start, 8 h)): 106.68% | Maximum Cell Density OD (0.5 + 0.5 g/L (start, 8 h)): 11.78 OD | Maximum Cell Density Time (0.5 + 0.5 g/L (start, 8 h)): 48 h | Time to completion (0.5 + 0.5 g/L (start, 8 h)): 48 h | Volumetric Productivity Average (0.5 + 0.5 g/L (start, 8 h)): 0.867 grams ethanol/(liter)(hour) | Volumetric Productivity Average % Control (0.5 + 0.5 g/L (start, 8 h)): 96.65% | Volumetric Productivity Maximum (0.5 + 0.5 g/L (start, 8 h)): 0.890 grams ethanol/(liter)(hour) | Volumetric Productivity Maximum % Control (0.5 + 0.5 g/L (start, 8 h)): 77.26% | Ethanol Production Maximum (0.5 g/L at start): 42.59 g/L | Ethanol Production Maximum % Control (0.5 g/L at start): 98.88% | Ethanol yield (0.5 g/L at start): 0.438 grams of ethanol/grams of added sugar | Initial Growth (OD at 24 h) % Control (0.5 g/L at start): 108.77% | Initial Growth (OD at 24 h) OD (0.5 g/L at start): 10.86 OD | Maximum Cell Density % Control (0.5 g/L at start): 107.97% | Maximum Cell Density OD (0.5 g/L at start): 11.92 OD | Maximum Cell Density Time (0.5 g/L at start): 48 h | Time to completion (0.5 g/L at start): 48 h | Volumetric Productivity Average (0.5 g/L at start): 0.887 grams ethanol/(liter)(hour) | Volumetric Productivity Average % Control (0.5 g/L at start): 98.88% | Volumetric Productivity Maximum (0.5 g/L at start): 1.027 grams ethanol/(liter)(hour) | Volumetric Productivity Maximum % Control (0.5 g/L at start): 89.20% | ethanol production as compared to the control (0.5 g/L at the start): highest amount of ethanol production | initial growth and maximum cell density as compared to the control (0.5 g/L at the start): greatest initial growth and maximum cell density | Ethanol Production Maximum (0.75 g/L at start): 42.65 g/L | Ethanol Production Maximum % Control (0.75 g/L at start): 99.00% | Ethanol yield (0.75 g/L at start): 0.439 grams of ethanol/grams of added sugar | Initial Growth (OD at 24 h) % Control (0.75 g/L at start): 105.54% | Initial Growth (OD at 24 h) OD (0.75 g/L at start): 10.54 OD | Maximum Cell Density % Control (0.75 g/L at start): 110.94% | Maximum Cell Density OD (0.75 g/L at start): 12.25 OD | Maximum Cell Density Time (0.75 g/L at start): 48 h | Time to completion (0.75 g/L at start): 48 h | Volumetric Productivity Average (0.75 g/L at start): 0.889 grams ethanol/(liter)(hour) | Volumetric Productivity Average % Control (0.75 g/L at start): 99.00% | Volumetric Productivity Maximum (0.75 g/L at start): 0.916 grams ethanol/(liter)(hour) | Volumetric Productivity Maximum % Control (0.75 g/L at start): 79.50%
